Results on 2 compounds are retold here after US20180344756A1, “METHODS FOR THE TREATMENT AND PREVENTION OF RENAL DISORDERS AND FATTY LIVER DISORDERS” (Janssen Pharmaceutica NV, priority 2014, published 2018).

Experiment [1] is described as follows: Albumin/creatinine ratio in the CANVAS clinical trial, subjects with micro- or macroalbuminuria. Type of experiment: in vivo, human. Conditions: for median percent change from baseline in ACR at Week 52: subjects with macroalbuminuria, Week 52, 82% of subjects on ACEIs or ARBs at baseline, placebo −3.6%. The protocol: (§1) The albumin/creatinine ratio was measured at baseline, over 12 weeks, over 52 weeks, and over 104 weeks, in subjects participating in the CANagliflozin cardioVascular Assessment Study (CANVAS), the DIA3004 clinical trial, and the DIA3009 clinical trial, respectively. (Complete protocol details for the CANVAS, DIA3004 and DIA3009 clinical trials are available on www.clinicaltrials.gov).
In subjects with macroalbuminuria in CANVAS, the median percent change from baseline in ACR at Week 52 was −3.6% in the placebo group, −58.6% in the canagliflozin 100 mg group, and −53.3% in the canagliflozin 300 mg group.

The nature of experiment [2]: Albuminuria in the DIA3004 clinical trial, subjects with moderate renal impairment. The following applies: 52-week study, placebo 19.7%. Type of experiment: in vivo, human. The protocol:
as §1

Experiment [3] can be described thus: eGFR change from baseline over time in the CANVAS, DIA3004 and DIA3009 clinical trials. Type of experiment: in vivo, human. The following applies: maximal at first post baseline visit, stable or attenuated with continued treatment; CANVAS and DIA3004 52 weeks, DIA3009 104 weeks; FIG. 3-5. From the text:
The time course of eGFR changes over 52 weeks in the CANVAS clinical trial is shown in FIG. 3; over a 52-week study in subjects with moderate renal impairment (in the DIA3004 clinical trial) are shown in FIG. 4; and over a 104-week period in an active comparator study (DIA3009, add-on to metformin) are shown in FIG. 5.

The conditions of experiment [4]: metformin on its own, in the diabetic; cited from earlier work.

For the compound `Cc1ccc([C@@H]2O[C@H](CO)[C@@H](O)[C@H](O)[C@H]2O)cc1Cc1ccc(-c2ccc(F)cc2)s1` [canagliflozin], the figures for the “median percent change from baseline in ACR at Week 52” value in experiment [1] (canagliflozin 100 mg) and in experiment [1] (canagliflozin 300 mg) were −58.6% and −53.3%, respectively. Moreover, the “albuminuria after 52 weeks of treatment (in words)” value in experiment [1] (subjects with micro- and macroalbuminuria at baseline, FIG. 1 and FIG. 2) is “reductions in albuminuria”. The “median percent reductions in albuminuria” value is recorded as −16.4% in experiment [2] (baseline eGFR 30 to <50 ml/min/1.73 m^2, canagliflozin 100 mg) and −28.0% in experiment [2] (baseline eGFR 30 to <50 ml/min/1.73 m^2, canagliflozin 300 mg). In addition, in experiment [3], the “effect on eGFR (in words)” value is reported as “dose-dependent, reversible reduction in eGFR”.
Consider `CN(C)C(=N)N=C(N)N` [metformin], for which the “average improvement in the HbA1c value” in experiment [4] is listed as 1.0-1.5%.
